# Reference: PMC7529893, “Structural basis for substrate recognition and chemical inhibition of oncogenic MAGE ubiquitin ligases” (Nature Communications, 2020)
# Entries after “also recorded” stand apart in the source; their conditions may differ.
# Columns and labels:
# [1] = biological target: T1, His-SUMO-MAGE-A11 MHD (Homo sapiens, UniProt P43364); experiment: Nano-differential scanning fluorimetry (NanoDSF); format: binding; settings: six-point dose response, protein 10 µM
# T1 construct: made in house; host or cells: bacteria
# T1 sequence (P43364 218-429): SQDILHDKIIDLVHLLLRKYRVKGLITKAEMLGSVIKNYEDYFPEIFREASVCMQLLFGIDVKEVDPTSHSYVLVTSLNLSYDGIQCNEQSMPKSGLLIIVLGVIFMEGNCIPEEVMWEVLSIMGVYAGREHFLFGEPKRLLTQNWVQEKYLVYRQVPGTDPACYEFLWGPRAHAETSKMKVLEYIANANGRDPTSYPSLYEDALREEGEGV
# Method: For NanoDSF measurements, a Prometheus NT.48 instrument (NanoTemper Technologies) was used to determine the melting temperatures. Triplicate samples were prepared in a standard 384-well PCR plate with His-SUMO-MAGE-A11 at 10 µM and ligand concentrations as noted. After incubating the protein and ligands for at least 30 min, capillaries were filled with 10 μL of sample and placed on the sample holder. DMSO was used as a negative reference control while PCF11_6 peptide was used as a positive control validating the assay. A temperature gradient of 1 °C min^−1 from 25 to 95 °C was applied and the intrinsic protein fluorescence at 330 and 350 nm was recorded. The 350 nm to 330 nm ratios of fluorescence measurements were used to calculate the Tm values of each sample using the Nanotemper PR.ThermControl software. Data were further analyzed and plotted using GraphPad Prism (v 8.3.1).
# [2] = biological target: T2, MAGE-F1:MMS19 (Homo sapiens, UniProt Q9HAY2); experiment: Co-IP of MAGE-F1 with MMS19 in cell lysate; format: binding; settings: 100 µM, 24 h
# T2 construct: expressed in transfected cells
# T2 sequence (Q9HAY2 1-307): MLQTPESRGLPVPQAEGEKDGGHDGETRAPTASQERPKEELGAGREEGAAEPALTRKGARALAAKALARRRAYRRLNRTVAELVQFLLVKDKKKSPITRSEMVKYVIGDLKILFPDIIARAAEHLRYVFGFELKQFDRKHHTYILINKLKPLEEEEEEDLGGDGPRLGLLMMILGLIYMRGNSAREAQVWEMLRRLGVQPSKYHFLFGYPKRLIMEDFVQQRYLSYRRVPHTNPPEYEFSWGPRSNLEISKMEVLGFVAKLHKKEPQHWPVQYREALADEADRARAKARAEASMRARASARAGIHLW
# Method: HEK293FT cells were plated in 6 cm^2 plates and transfected 24 h later with Effectene (QIAGEN) according to the manufacturer’s protocol. After 48 h, cells were washed and scraped in cold PBS, spun down, and resuspended in lysis buffer (50 mM Tris pH 7.4, 150 mM NaCl, 1 mM DTT, 0.1% (v/v) Triton X-100, 10 mM N-Ethylmaleimide, and 1X protease inhibitor cocktail (Sigma)). Cell lysates were incubated with appropriate antibodies overnight at 4 °C and then with protein A beads for 2 h at 4 °C. Beads were then washed with lysis buffer three times and eluted with 2X SDS sample buffer.
# For western blotting, samples in SDS sample buffer were resolved on SDS-PAGE gels and then transferred to nitrocellulose membranes prior to blocking in TBST with 5% (w/v) milk powder or 3% (w/v) bovine serum albumin and probing with primary and secondary antibodies (GE Healthcare). Primary antibodies were: anti-Myc (Sigma, #C3956), anti-FLAG (Sigma, #F3165), anti-HUWE1 (Novus Biologicals, #NB 100-652), anti-PCF11 (Bethyl Laboratories, #A303-706A), anti-GAPDH (Cell Signaling Technology, #2118), anti-TRIM28 (Abcam, #ab22553), anti-AMPKα1 (Cell Signaling Technology, #2795), and anti-MMS19 (Proteintech, #16015-1-AP) and Tb-anti-GST (Invitrogen, #PV3551). Secondary antibodies were: Donkey Anti-Rabbit IgG (GE Healthcare, NA934V) and Sheep Anti-Mouse IgG (GE Healthcare, NA931V). […]
Compound,thermal stabilization of MAGE-A11 (NanoDSF) ([1]; listed as SJ521054),interaction of MAGE-F1 with MMS19 in cell lysate ([2]; listed as SJ521054),thermal stabilization of MAGE-A11 (NanoDSF) ([1]; listed as SJ1008066),interaction of MAGE-F1 with MMS19 in cell lysate ([2]; listed as SJ1008066)
FC(F)(F)c1ccc2c(NCCCNCc3ccc4[nH]ccc4c3)ccnc2c1 [SJ000521054-02],showed stabilization of MAGE-A11; also recorded: stabilized MAGE-A11,do not disrupt interaction; also recorded: did not disrupt interaction,–,–
c1ccc2c(NCCCNCc3ccc4[nH]ccc4c3)ccnc2c1 [SJ001008066-01],–,–,showed stabilization of MAGE-A11; also recorded: stabilized MAGE-A11,do not disrupt interaction; also recorded: did not disrupt interaction
